{"source": "patent US4316958A", "about": "“Process for producing optically active cephalosporin analogs” (Kyowa Hakko Kogyo Co., Ltd., priority 1979, dated 1982)", "format_in_all_cases": "cell-based", "key": {"[1]": {"test_system": "Escherichia coli GN2411-5", "experiment": "Heart Infusion Agar Dilution Method, antimicrobial activity (MIC)", "excerpt": "(§1) Antimicrobial activities of the compounds obtained in Reference Examples 1 and 2 are as follows. Heart Infusion Agar Dilution Method (pH 7.2) is used. A cephalosporin compound having the same acyl side chain corresponding to the dl-compound is used as a control. The compounds are identified as follows."}, "Escherichia coli Juhl": {"test_system": "Escherichia coli Juhl", "experiment": "Heart Infusion Agar Dilution Method, antimicrobial activity (MIC)", "excerpt": "as §1"}, "Escherichia coli NIHJC-2": {"test_system": "Escherichia coli NIHJC-2", "experiment": "Heart Infusion Agar Dilution Method, antimicrobial activity (MIC)", "excerpt": "as §1"}, "[2]": {"test_system": "Klebsiella pneumoniae 8045", "experiment": "Heart Infusion Agar Dilution Method, antimicrobial activity (MIC)", "settings": "Klebsiella pneumoniae, 8045, pH 7.2, Klebsiella pneumoniae 8045", "excerpt": "as §1"}, "[3]": {"test_system": "Klebsiella pneumoniae Y-60", "experiment": "Heart Infusion Agar Dilution Method, antimicrobial activity (MIC)", "excerpt": "as §1"}, "Proteus mirabilis 1287": {"test_system": "Proteus mirabilis 1287", "experiment": "Heart Infusion Agar Dilution Method, antimicrobial activity (MIC)", "settings": "Proteus mirabilis, 1287, pH 7.2, Proteus mirabilis 1287", "excerpt": "as §1"}, "Proteus morganii KY 4298": {"test_system": "Proteus morganii KY 4298", "experiment": "Heart Infusion Agar Dilution Method, antimicrobial activity (MIC)", "excerpt": "as §1"}, "Proteus rettgeri KY 4289": {"test_system": "Proteus rettgeri KY 4289", "experiment": "Heart Infusion Agar Dilution Method, antimicrobial activity (MIC)", "settings": "Providencia rettgeri, KY4289, pH 7.2", "excerpt": "as §1"}, "Proteus vulgaris 6897": {"test_system": "Proteus vulgaris 6897", "experiment": "Heart Infusion Agar Dilution Method, antimicrobial activity (MIC)", "settings": "Proteus vulgaris, 6897, pH 7.2, Proteus vulgaris 6897", "excerpt": "as §1"}, "[4]": {"test_system": "Pseudomonas aeruginosa #1", "experiment": "Heart Infusion Agar Dilution Method, antimicrobial activity (MIC)", "excerpt": "as §1"}, "[5]": {"test_system": "Pseudomonas aeruginosa 145", "experiment": "Heart Infusion Agar Dilution Method, antimicrobial activity (MIC)", "settings": "Pseudomonas aeruginosa, 145, pH 7.2, Pseudomonas aeruginosa 145", "excerpt": "as §1"}, "Pseudomonas putida 264": {"test_system": "Pseudomonas putida 264", "experiment": "Heart Infusion Agar Dilution Method, antimicrobial activity (MIC)", "excerpt": "as §1"}, "Serratia marcescens T-26": {"test_system": "Serratia marcescens T-26", "experiment": "Heart Infusion Agar Dilution Method, antimicrobial activity (MIC)", "excerpt": "as §1"}, "Serratia marcescens T-55": {"test_system": "Serratia marcescens T-55", "experiment": "Heart Infusion Agar Dilution Method, antimicrobial activity (MIC)", "excerpt": "as §1"}, "[6]": {"test_system": "Staphylococcus aureus 209-P", "experiment": "Heart Infusion Agar Dilution Method, antimicrobial activity (MIC)", "excerpt": "as §1"}, "[7]": {"test_system": "Staphylococcus aureus Smith", "experiment": "Heart Infusion Agar Dilution Method, antimicrobial activity (MIC)", "excerpt": "(§2) Heart Infusion Agar Dilution Method (pH 7.2) is used. A cephalosporin compound having the same acyl side chain corresponding to the dl-compound is used as a control. The compounds are identified as follows."}, "[8]": {"test_system": "Staphylococcus epidermidis", "experiment": "Heart Infusion Agar Dilution Method, antimicrobial activity (MIC)", "settings": "pH 7.2", "excerpt": "as §2"}, "[9]": {"experiment": "antimicrobial activity (stated in words)", "excerpt": "as §1"}, "[10]": {"settings": "Escherichia coli, GN2411, pH 7.2, Escherichia coli GN2411-5, read-out: MIC"}, "[11]": {"settings": "Escherichia coli, pH 7.2, Escherichia coli Juhl, read-out: MIC"}, "[12]": {"settings": "Escherichia coli, NIHJC2, pH 7.2, Escherichia coli NIHJC-2, read-out: MIC"}, "[13]": {"settings": "Klebsiella pneumoniae, Y60, pH 7.2, Klebsiella pneumoniae Y-60, read-out: MIC"}, "[14]": {"settings": "Morganella morganii, KY4298, pH 7.2, Proteus morganii KY 4298, read-out: MIC"}, "[15]": {"settings": "Pseudomonas aeruginosa, pH 7.2, Pseudomonas aeruginosa #1, read-out: MIC"}, "[16]": {"settings": "Serratia marcescens, T26, pH 7.2, Serratia marcescens T-26, read-out: MIC"}, "[17]": {"settings": "Serratia marcescens T-55, pH 7.2"}, "[18]": {"settings": "Staphylococcus aureus 209-P, pH 7.2"}}, "note": "Like-named read-outs stand apart in the source and are kept apart here.", "data": [{"compound": "CO/N=C(\\C(=O)N[C@@H]1C(=O)N2C(C(=O)O)=C(COC(C)=O)CS[C@H]12)c1csc(N)n1", "note": "[C, reference compound]", "values": [{"measurement": "MIC", "setting": "[1]; [10]", "value": 0.05, "unit": "µg/mL"}, {"measurement": "MIC", "setting": "Escherichia coli Juhl; [11]", "value": 0.05, "unit": "µg/mL"}, {"measurement": "MIC", "setting": "Escherichia coli NIHJC-2; [12]", "value": 0.1, "unit": "µg/mL"}, {"measurement": "MIC", "setting": "[2]", "value": "≤ 0.01", "unit": "µg/mL"}, {"measurement": "MIC", "setting": "[3]; [13]", "value": 0.05, "unit": "µg/mL"}, {"measurement": "MIC", "setting": "Proteus mirabilis 1287", "value": 0.02, "unit": "µg/mL"}, {"measurement": "MIC", "setting": "Proteus morganii KY 4298; [14]", "value": 0.05, "unit": "µg/mL"}, {"measurement": "MIC", "setting": "Proteus rettgeri KY 4289", "value": "≤ 0.01", "unit": "µg/mL"}, {"measurement": "MIC", "setting": "Proteus vulgaris 6897", "value": "≤ 0.01", "unit": "µg/mL"}, {"measurement": "MIC", "setting": "[4]; [15]", "value": 6.25, "unit": "µg/mL"}, {"measurement": "MIC", "setting": "[5]", "value": 50, "unit": "µg/mL"}, {"measurement": "MIC", "setting": "Pseudomonas putida 264; Pseudomonas putida, 264, pH 7.2, Pseudomonas putida 264, read-out: MIC", "value": 0.1, "unit": "µg/mL"}, {"measurement": "MIC", "setting": "Serratia marcescens T-26; [16]", "value": 0.78, "unit": "µg/mL"}, {"measurement": "MIC", "setting": "Serratia marcescens T-55; Serratia marcescens, T55, pH 7.2, Serratia marcescens T-55, read-out: MIC", "value": 0.1, "unit": "µg/mL"}, {"measurement": "MIC", "setting": "[6]; Staphylococcus aureus, 209P, pH 7.2, Staphylococcus aureus 209-P, read-out: MIC", "value": 0.78, "unit": "µg/mL"}, {"measurement": "MIC", "setting": "[7]; Staphylococcus aureus Smith, pH 7.2, read-out: MIC", "value": 1.56, "unit": "µg/mL"}, {"measurement": "MIC", "setting": "[8]", "value": 1.56, "unit": "µg/mL"}]}, {"compound": "CO/N=C(\\C(=O)N[C@@H]1C(=O)N2C(C(=O)O)=C[C@@H](C)C[C@H]12)c1csc(N)n1", "note": "[B, (-)-cis-7β-[2-(2-amino-4-thiazolyl)-2-syn-methoxyiminoacetamido]-4α-methyl-1-azabicyclo[4,2,0]oct-2-en-8-on-2-carboxylic acid]", "values": [{"measurement": "MIC", "setting": "[1]; [10]", "value": "≤ 0.01", "unit": "µg/mL"}, {"measurement": "MIC", "setting": "Escherichia coli Juhl; [11]", "value": 0.02, "unit": "µg/mL"}, {"measurement": "MIC", "setting": "Escherichia coli NIHJC-2; [12]", "value": 0.02, "unit": "µg/mL"}, {"measurement": "MIC", "setting": "[2]", "value": "≤ 0.01", "unit": "µg/mL"}, {"measurement": "MIC", "setting": "[3]; [13]", "value": 0.02, "unit": "µg/mL"}, {"measurement": "MIC", "setting": "Proteus mirabilis 1287", "value": "≤ 0.01", "unit": "µg/mL"}, {"measurement": "MIC", "setting": "Proteus morganii KY 4298; Proteus morganii KY 4298, pH 7.2", "value": 0.02, "unit": "µg/mL"}, {"measurement": "MIC", "setting": "Proteus rettgeri KY 4289", "value": "≤ 0.01", "unit": "µg/mL"}, {"measurement": "MIC", "setting": "Proteus vulgaris 6897", "value": "≤ 0.01", "unit": "µg/mL"}, {"measurement": "MIC", "setting": "[4]; [15]", "value": 25, "unit": "µg/mL"}, {"measurement": "MIC", "setting": "[5]", "value": 100, "unit": "µg/mL"}, {"measurement": "MIC", "setting": "Pseudomonas putida 264; Pseudomonas putida 264, pH 7.2", "value": 0.05, "unit": "µg/mL"}, {"measurement": "MIC", "setting": "Serratia marcescens T-26; [16]", "value": 0.4, "unit": "µg/mL"}, {"measurement": "MIC", "setting": "Serratia marcescens T-55; [17]", "value": 0.05, "unit": "µg/mL"}, {"measurement": "MIC", "setting": "[6]; [18]", "value": 1.56, "unit": "µg/mL"}, {"measurement": "MIC", "setting": "[7]; Staphylococcus aureus, pH 7.2, Staphylococcus aureus Smith, read-out: MIC", "value": 6.25, "unit": "µg/mL"}, {"measurement": "antimicrobial activity", "setting": "[9]", "value": "strong antimicrobial activity"}]}, {"compound": "CO/N=C(\\C(=O)N[C@@H]1C(=O)N2C(C(=O)O)=CCC[C@H]12)c1csc(N)n1", "note": "[A, (+)-cis-7-[2-(2-amino-4-thiazolyl)-2-syn-methoxyiminoacetamido]-1-azabicyclo[4,2,0]oct-2-en-8-on-2-carboxylic acid]", "values": [{"measurement": "MIC", "setting": "[1]; Escherichia coli GN2411-5, pH 7.2", "value": 0.01, "unit": "µg/mL"}, {"measurement": "MIC", "setting": "Escherichia coli Juhl; Escherichia coli Juhl, pH 7.2", "value": 0.02, "unit": "µg/mL"}, {"measurement": "MIC", "setting": "Escherichia coli NIHJC-2; Escherichia coli NIHJC-2, pH 7.2", "value": 0.02, "unit": "µg/mL"}, {"measurement": "MIC", "setting": "[2]", "value": "≤ 0.006", "unit": "µg/mL"}, {"measurement": "MIC", "setting": "[3]; Klebsiella pneumoniae Y-60, pH 7.2", "value": 0.02, "unit": "µg/mL"}, {"measurement": "MIC", "setting": "Proteus mirabilis 1287", "value": 0.01, "unit": "µg/mL"}, {"measurement": "MIC", "setting": "Proteus morganii KY 4298; [14]", "value": 0.05, "unit": "µg/mL"}, {"measurement": "MIC", "setting": "Proteus rettgeri KY 4289", "value": "≤ 0.006", "unit": "µg/mL"}, {"measurement": "MIC", "setting": "Proteus vulgaris 6897", "value": "≤ 0.006", "unit": "µg/mL"}, {"measurement": "MIC", "setting": "[4]; Pseudomonas aeruginosa #1, pH 7.2", "value": 6.25, "unit": "µg/mL"}, {"measurement": "MIC", "setting": "Serratia marcescens T-26; Serratia marcescens T-26, pH 7.2", "value": 0.2, "unit": "µg/mL"}, {"measurement": "MIC", "setting": "Serratia marcescens T-55; [17]", "value": 0.02, "unit": "µg/mL"}, {"measurement": "MIC", "setting": "[6]; [18]", "value": 3.12, "unit": "µg/mL"}, {"measurement": "MIC", "setting": "[7]; Staphylococcus aureus Smith, pH 7.2", "value": 6.25, "unit": "µg/mL"}, {"measurement": "antimicrobial activity", "setting": "[9]", "value": "strong antimicrobial activity"}]}]}
